By GI50 is commonly meant the concentration that inhibits growth by half. For orientation: TGI means the concentration at which net growth stops. Low values mean more potent growth arrest, high ones less potent growth arrest.

Among the test systems are A549 NSCLC; K-562 leukemia; MOLT-4 leukemia; NCI-H23 lung; OVCAR-3 ovarian; SF-539 CNS; SK-MEL-5 melanoma; A498 renal; DU-145 prostate; PC-3 prostate.
Common to all, as to assay: DTP human tumour cell line panel, 48 h

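In this assay, cells in 96-well plates receive the compound at five concentrations for 48 hours. Endpoints are linearly interpolated between the surrounding concentrations. The concentration for 50% growth inhibition is given as GI50. TGI: total growth inhibition.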

`C[CH2][Sn]([Cl])([CH2]C)[CH2]C`: the GI50 in the experiment on A549 NSCLC is 1.18 µM; with K-562 leukemia, 0.718 µM; with MOLT-4 leukemia, 0.369 µM; in the experiment on NCI-H23 lung, 0.556 µM; with OVCAR-3 ovarian it was 1.34 µM; with SF-539 CNS it was 1.01 µM. Also, the GI50 with SK-MEL-5 melanoma is 0.761 µM. Besides, the TGI turned out to be 5.04 µM in the experiment on A549 NSCLC; 5 µM in the experiment with K-562 leukemia; 2.96 µM in the experiment with MOLT-4 leukemia; 4.84 µM in the experiment with NCI-H23 lung; 6.61 µM in the experiment with OVCAR-3 ovarian; 2.91 µM with SF-539 CNS. This compound showed a TGI with SK-MEL-5 melanoma of 2.26 µM.
As to `CC1=C2[C@@H](c3ccccc3)C3C=CC2(c2ccccc23)N(C(=O)Nc2cccc3ccccc23)C1=O` (stereo partly specified), the TGI with A498 renal, in the experiment on A549 NSCLC, with K-562 leukemia, with MOLT-4 leukemia, with NCI-H23 lung and in the experiment with OVCAR-3 ovarian was more than 100 µM in each case. In addition, the TGI in the experiment with SF-539 CNS and with SK-MEL-5 melanoma was more than 100 µM throughout.
Consider `CC1OC(n2cc(I)c(=O)[nH]c2=O)C=CC1=O` (stereo unspecified), for which the TGI with A498 renal worked out at 29.6 µM; with A549 NSCLC it was 72.6 µM; in the experiment with K-562 leukemia, 18 µM; in the experiment with MOLT-4 leukemia, 33.8 µM; with NCI-H23 lung, 30.7 µM; in the experiment with OVCAR-3 ovarian, 31.5 µM. Besides, the values for the concentration for total growth inhibition (TGI) in the experiment with SF-539 CNS and in the experiment on SK-MEL-5 melanoma were 27.5 µM and 29.5 µM, respectively.
With `CCOC(=O)NN(C(=O)OCC)C(C(=O)c1ccc(Cl)cc1)=C1NCCN1`, the TGI in the experiment on A498 renal, in the experiment on A549 NSCLC, with K-562 leukemia, with MOLT-4 leukemia, with NCI-H23 lung and with OVCAR-3 ovarian was more than 100 µM each time. Besides, the TGI in the experiment with SF-539 CNS and with SK-MEL-5 melanoma was more than 100 µM throughout.
As for `N#CC(C#N)=Cc1ccc(Oc2ccccc2)cc1`, the TGI is more than 100 µM with A498 renal; more than 100 µM in the experiment on A549 NSCLC; more than 80.4 µM in the experiment with K-562 leukemia; 98.4 µM with MOLT-4 leukemia; 52.2 µM in the experiment with NCI-H23 lung; more than 100 µM in the experiment on OVCAR-3 ovarian. The values for the TGI in the experiment on SF-539 CNS and in the experiment with SK-MEL-5 melanoma were 40.4 µM and 64.7 µM, respectively.
As for `C[C@]12CC/C(=N\OC(=O)Nc3ccccc3)C=C1CC[C@@H]1C2CC[C@@]2(C)C1CC[C@@H]2OC(=O)Nc1ccccc1` (stereo partly specified), the TGI in the experiment with A498 renal, in the experiment with A549 NSCLC, with K-562 leukemia, in the experiment on MOLT-4 leukemia, with NCI-H23 lung and in the experiment with OVCAR-3 ovarian was more than 100 µM throughout. Further, the TGI in the experiment with SF-539 CNS and with SK-MEL-5 melanoma was more than 100 µM in each case.
Consider `O=C(CC(=O)c1cccc([N+](=O)[O-])c1)C(=O)Nc1nc([N+](=O)[O-])cs1`, for which the TGI in the experiment with A498 renal, with A549 NSCLC, in the experiment on K-562 leukemia, in the experiment on MOLT-4 leukemia, in the experiment with NCI-H23 lung and in the experiment with OVCAR-3 ovarian was more than 100 µM throughout. Moreover, the TGI in the experiment with SF-539 CNS and in the experiment on SK-MEL-5 melanoma was more than 100 µM in each case.
For the compound `O=c1[nH]c(=O)n(C2OC(CO)C(O)C2O)cc1OCc1ccccc1` (stereo unspecified), the TGI in the experiment on A498 renal, in the experiment with A549 NSCLC, with K-562 leukemia, in the experiment on MOLT-4 leukemia, with NCI-H23 lung and in the experiment with OVCAR-3 ovarian was more than 100 µM throughout. The TGI with SF-539 CNS and with SK-MEL-5 melanoma was more than 100 µM each time.
`CC(=O)OCc1c(C)c2ccccc2n1C(C)=O`: the TGI in the experiment with A498 renal was more than 100 µM; in the experiment with A549 NSCLC, more than 100 µM; in the experiment with K-562 leukemia it was 71.5 µM; in the experiment with MOLT-4 leukemia it was 86.7 µM; with NCI-H23 lung, more than 100 µM; with OVCAR-3 ovarian, 62.8 µM. The TGI in the experiment on SF-539 CNS and in the experiment with SK-MEL-5 melanoma was more than 100 µM throughout.
As for `COc1ccc2c([nH]c3cc(O)c(C)cc32)c1CC=C(C)C`, the GI50 is 8.47 µM in the experiment on A549 NSCLC; 5.78 µM in the experiment with K-562 leukemia; 4.94 µM in the experiment with MOLT-4 leukemia; 8.01 µM in the experiment with SF-539 CNS; 8.04 µM in the experiment on SK-MEL-5 melanoma. Moreover, the TGI with A549 NSCLC was more than 25 µM; in the experiment with K-562 leukemia it was 24 µM; with MOLT-4 leukemia it was 15.9 µM; with OVCAR-3 ovarian, 12.4 µM; in the experiment with SF-539 CNS, more than 25 µM; with SK-MEL-5 melanoma, more than 25 µM.
Turning to `CN1CCc2cc(O)c3cc2C1Cc1ccc(cc1)Oc1cc(ccc1O)CC1c2c(cc4c(c2O3)OCO4)CCN1C` (stereo unspecified), the total growth inhibition concentration (TGI) in the experiment with A549 NSCLC is more than 100 µM; in the experiment on K-562 leukemia it was 39.4 µM; in the experiment on MOLT-4 leukemia it was 85.4 µM; in the experiment with NCI-H23 lung, more than 100 µM; with OVCAR-3 ovarian it was more than 100 µM; in the experiment with SF-539 CNS, 32.6 µM. Besides, the TGI in the experiment with SK-MEL-5 melanoma worked out at 33.1 µM.
On to `O=[N+]([O-])c1cc([N+](=O)[O-])c(C(Cl)C(Cl)c2ccccc2)cc1C(Cl)C(Cl)c1ccccc1` (stereo unspecified), for which the TGI in the experiment with A498 renal is 3.33 µM; in the experiment on A549 NSCLC it was 4.51 µM; in the experiment with K-562 leukemia, 3.58 µM; with MOLT-4 leukemia, more than 23.3 µM; with NCI-H23 lung it was 3.72 µM; with OVCAR-3 ovarian, 5.06 µM. Further, the values for the TGI with SF-539 CNS and in the experiment on SK-MEL-5 melanoma were 3.33 µM and 3.29 µM, respectively.
With `CC(C)N(C(=O)C12C3C4C5C3C1(C#N)C5C42)C(C)C` (stereo unspecified), the TGI with A498 renal, with A549 NSCLC, in the experiment with K-562 leukemia, in the experiment on MOLT-4 leukemia, in the experiment on NCI-H23 lung and in the experiment on OVCAR-3 ovarian was more than 100 µM in each case. Further, the TGI in the experiment on SF-539 CNS and with SK-MEL-5 melanoma was more than 100 µM in each case.
As to `O=C1C(Cl)=C(Nc2cccc(O)c2)C(=O)N1c1ccc(Cl)cc1Cl`, the GI50 is 46.3 µM in the experiment on A549 NSCLC; 23.1 µM in the experiment with DU-145 prostate; 22 µM in the experiment with K-562 leukemia; 7.32 µM in the experiment on MOLT-4 leukemia; 24.9 µM in the experiment on NCI-H23 lung; 13.9 µM with PC-3 prostate. In the experiment on SK-MEL-5 melanoma, the GI50 was 14.7 µM. The TGI with A549 NSCLC is more than 100 µM; in the experiment with DU-145 prostate, 90.5 µM; in the experiment on K-562 leukemia it was 58.1 µM; in the experiment on MOLT-4 leukemia it was 33.1 µM; in the experiment on NCI-H23 lung, 88.7 µM; with PC-3 prostate, 38.2 µM. The compound also displayed a TGI with SK-MEL-5 melanoma of 32.2 µM.

These data come from PubChem BioAssay (NCI).
